Where a name gives a salt, the structure may show the parent alone.
Key:
[1] = test system: ENR+CD organoids (ISC to Paneth cell differentiation); assay: Primary screen: basal (non-stimulated) lysozyme secretion LYZ.NS, 2.5-D 384-well ENR+CD organoid differentiation; assay type: cell-based, mouse; settings: primary screen; for Z.LYZ.NS: standard z score
From the text: (§1) High-throughput screening.

[2] = test system: ENR+CD organoids (ISC to Paneth cell differentiation); assay: Primary screen: CCh-stimulated lysozyme secretion LYZ.S, 2.5-D 384-well ENR+CD organoid differentiation; assay type: cell-based, mouse; settings: primary screen
From the text: as §1

[3] = test system: ENR+CD organoids; assay: Primary screen: ATP (CellTiter-Glo 3D, CTG) cell number/viability, 2.5-D 384-well ENR+CD organoids; settings: primary screen;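 further: compounds given at plating and again on day 3 over a 6-day differentiation from ENR+CV stem-cell-enriched precursors, ATP measured on day 6, plate median as control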

O=C(/C=C/c1cccc(S(=O)(=O)Nc2ccccc2)c1)NO [Belinostat (PXD101)]
Dose.FC.LYZ.NS ([1]; dose 0.08 uM): 0.008 log2 fold change | Z.LYZ.NS (standard z score) ([1]; dose 0.08 uM): 0.067 | Dose.FC.LYZ.NS ([1]; dose 0.40 uM): 0.129 log2 fold change | Z.LYZ.NS (standard z score) ([1]; dose 0.40 uM): 1.125 | Dose.FC.LYZ.NS ([1]; dose 2.00 uM): −0.173 log2 fold change | Z.LYZ.NS (standard z score) ([1]; dose 2.00 uM): −1.510 | Dose.FC.LYZ.NS ([1]; dose 10.00 uM): −0.196 log2 fold change | Z.LYZ.NS (standard z score) ([1]; dose 10.00 uM): −1.709 | Dose.FC.LYZ.S ([2]; dose 0.08 uM): −0.059 log2 fold change | Dose.FC.LYZ.S ([2]; dose 0.40 uM): 0.042 log2 fold change | Dose.FC.LYZ.S ([2]; dose 2.00 uM): −0.264 log2 fold change | Dose.FC.LYZ.S ([2]; dose 10.00 uM): −0.327 log2 fold change | Dose.FC.CTG ([3]; dose 0.08 uM): −0.227 log2 fold change | Z.CTG (standard z score) ([3]; dose 0.08 uM): −0.543 | Dose.FC.CTG ([3]; dose 0.40 uM): −0.055 log2 fold change | Z.CTG (standard z score) ([3]; dose 0.40 uM): −0.133 | Dose.FC.CTG ([3]; dose 2.00 uM): −0.782 log2 fold change | Z.CTG (standard z score) ([3]; dose 2.00 uM): −1.868 | Dose.FC.CTG ([3]; dose 10.00 uM): −1.122 log2 fold change | Z.CTG (standard z score) ([3]; dose 10.00 uM): −2.679

COc1cc2nc(N3CCN(C(=O)C4COc5ccccc5O4)CC3)nc(N)c2cc1OC (centres unmarked) [Doxazosin Mesylate]
Dose.FC.LYZ.NS ([1]; dose 0.08 uM): 0.073 log2 fold change | Dose.FC.LYZ.NS ([1]; dose 0.40 uM): 0.044 log2 fold change | Dose.FC.LYZ.NS ([1]; dose 2.00 uM): 0.047 log2 fold change | Dose.FC.LYZ.NS ([1]; dose 10.00 uM): 0.039 log2 fold change | Z.LYZ.NS ([1]; dose 0.08 uM): 0.633 | Z.LYZ.NS ([1]; dose 0.40 uM): 0.387 | Z.LYZ.NS ([1]; dose 2.00 uM): 0.413 | Z.LYZ.NS ([1]; dose 10.00 uM): 0.340 | Dose.FC.LYZ.S ([2]; dose 0.08 uM): 0.093 log2 fold change | Dose.FC.LYZ.S ([2]; dose 0.40 uM): 0.084 log2 fold change | Dose.FC.LYZ.S ([2]; dose 2.00 uM): 0.030 log2 fold change | Dose.FC.LYZ.S ([2]; dose 10.00 uM): 0.015 log2 fold change | Dose.FC.CTG ([3]; dose 0.08 uM): 0.072 log2 fold change | Dose.FC.CTG ([3]; dose 0.40 uM): −0.015 log2 fold change | Dose.FC.CTG ([3]; dose 2.00 uM): 0.146 log2 fold change | Dose.FC.CTG ([3]; dose 10.00 uM): 0.075 log2 fold change

Cl.O=C(O)Cc1cccc(OCCCN(Cc2cccc(C(F)(F)F)c2Cl)CC(c2ccccc2)c2ccccc2)c1 [GW3965 HCl]
Dose.FC.LYZ.NS (log2 fold change) ([1]; dose 0.08 uM): 0.059 | Z.LYZ.NS (standard z score) ([1]; dose 0.08 uM): 0.516 | Dose.FC.LYZ.NS (log2 fold change) ([1]; dose 0.40 uM): 0.002 | Z.LYZ.NS (standard z score) ([1]; dose 0.40 uM): 0.013 | Dose.FC.LYZ.NS (log2 fold change) ([1]; dose 2.00 uM): 0.077 | Z.LYZ.NS (standard z score) ([1]; dose 2.00 uM): 0.673 | Dose.FC.LYZ.NS (log2 fold change) ([1]; dose 10.00 uM): −0.009 | Z.LYZ.NS (standard z score) ([1]; dose 10.00 uM): −0.080 | Dose.FC.LYZ.S (log2 fold change) ([2]; dose 0.08 uM): 0.091 | Dose.FC.LYZ.S (log2 fold change) ([2]; dose 0.40 uM): 0.074 | Dose.FC.LYZ.S (log2 fold change) ([2]; dose 2.00 uM): 0.179 | Dose.FC.LYZ.S (log2 fold change) ([2]; dose 10.00 uM): −0.047 | Dose.FC.CTG (log2 fold change) ([3]; dose 0.08 uM): 0.138 | Z.CTG (standard z score) ([3]; dose 0.08 uM): 0.330 | Dose.FC.CTG (log2 fold change) ([3]; dose 0.40 uM): 0.201 | Z.CTG (standard z score) ([3]; dose 0.40 uM): 0.481 | Dose.FC.CTG (log2 fold change) ([3]; dose 2.00 uM): 0.229 | Z.CTG (standard z score) ([3]; dose 2.00 uM): 0.546 | Dose.FC.CTG (log2 fold change) ([3]; dose 10.00 uM): −0.078 | Z.CTG (standard z score) ([3]; dose 10.00 uM): −0.186

CC(=O)O[C@]1(C(C)=O)CC[C@H]2[C@@H]3C=C(Cl)C4=CC(=O)[C@@H]5C[C@@H]5[C@]4(C)[C@H]3CC[C@@]21C [Cyproterone Acetate]
Dose.FC.LYZ.NS ([1]; dose 0.08 uM): −0.026 log2 fold change | Dose.FC.LYZ.NS ([1]; dose 0.40 uM): −0.074 log2 fold change | Dose.FC.LYZ.NS ([1]; dose 2.00 uM): −0.055 log2 fold change | Dose.FC.LYZ.NS ([1]; dose 10.00 uM): −0.081 log2 fold change | Z.LYZ.NS ([1]; dose 0.08 uM): −0.225 | Z.LYZ.NS ([1]; dose 0.40 uM): −0.642 | Z.LYZ.NS ([1]; dose 2.00 uM): −0.479 | Z.LYZ.NS ([1]; dose 10.00 uM): −0.702 | Dose.FC.LYZ.S ([2]; dose 0.08 uM): 0.040 log2 fold change | Dose.FC.LYZ.S ([2]; dose 0.40 uM): −0.019 log2 fold change | Dose.FC.LYZ.S ([2]; dose 2.00 uM): −0.093 log2 fold change | Dose.FC.LYZ.S ([2]; dose 10.00 uM): −0.134 log2 fold change | Dose.FC.CTG ([3]; dose 0.08 uM): −0.110 log2 fold change | Dose.FC.CTG ([3]; dose 0.40 uM): 0.051 log2 fold change | Dose.FC.CTG ([3]; dose 2.00 uM): −0.143 log2 fold change | Dose.FC.CTG ([3]; dose 10.00 uM): −0.173 log2 fold change

Cl.Cl.Cl.O[C@@H](COc1cccc2ncccc12)CN1CCN([C@@H]2c3ccccc3[C@@H]3[C@H](c4ccccc42)C3(F)F)CC1 [Zosuquidar (LY335979) 3HCl]
Dose.FC.LYZ.NS ([1]; dose 0.08 uM): 0.096 log2 fold change | Z.LYZ.NS (standard z score) ([1]; dose 0.08 uM): 0.839 | Dose.FC.LYZ.NS ([1]; dose 0.40 uM): 0.080 log2 fold change | Z.LYZ.NS (standard z score) ([1]; dose 0.40 uM): 0.696 | Dose.FC.LYZ.NS ([1]; dose 2.00 uM): 0.207 log2 fold change | Z.LYZ.NS (standard z score) ([1]; dose 2.00 uM): 1.802 | Dose.FC.LYZ.NS ([1]; dose 10.00 uM): −0.209 log2 fold change | Z.LYZ.NS (standard z score) ([1]; dose 10.00 uM): −1.821 | Dose.FC.LYZ.S ([2]; dose 0.08 uM): 0.124 log2 fold change | Dose.FC.LYZ.S ([2]; dose 0.40 uM): 0.127 log2 fold change | Dose.FC.LYZ.S ([2]; dose 2.00 uM): 0.129 log2 fold change | Dose.FC.LYZ.S ([2]; dose 10.00 uM): −0.200 log2 fold change | Dose.FC.CTG ([3]; dose 0.08 uM): 0.017 log2 fold change | Z.CTG (standard z score) ([3]; dose 0.08 uM): 0.041 | Dose.FC.CTG ([3]; dose 0.40 uM): 0.197 log2 fold change | Z.CTG (standard z score) ([3]; dose 0.40 uM): 0.470 | Dose.FC.CTG ([3]; dose 2.00 uM): 0.276 log2 fold change | Z.CTG (standard z score) ([3]; dose 2.00 uM): 0.659 | Dose.FC.CTG ([3]; dose 10.00 uM): −0.193 log2 fold change | Z.CTG (standard z score) ([3]; dose 10.00 uM): −0.461

— patent US20220323406A1, “METHODS AND COMPOSITIONS FOR DIFFERENTIATING STEM CELLS” (Massachusetts Institute of Technology, priority 2019, published 2022)
